Experimental data as given in patent publication US12540166B2, “BNIP3 peptides for treatment of reperfusion injury” (Bimyo GmbH, priority 2019, dated 2026).

Key:
[1] = test system: human ventricular cardiomyocytes derived from human induced pluripotent stem cells (humanCM); experiment: In vitro reoxygenation after hypoxia in humanCM; format: cell-based; conditions: 2 h of reoxygenation after hypoxia; for mitochondrial inner membrane depolarization / loss of mitochondrial inner membrane potential: JC-1
Description: Cell culture. Human iPSC-derived ventricular cardiomyocytes (humanCM) were obtained from (axol) and were cultivated according to the manufacture's specification.
To simulate vessel occlusion, cells were incubated in buffer (113 mM NaCl, 4.7 mM KCl, 12 mM HEPES, 1.2 mM MgSO4, 30 mM taurine, 1.3 mM CaCl2), pH 7.4) under 1% O2, 37° C. Reoxygenation was performed in buffer supplemented with 5.5 mM glucose under 21% O2, 37° C.
JC-1 Assay. To analyze mitochondrial inner membrane potential in humanCM cells were stained with 5′,6,6′-tetrachloro-1,1′,3,3′-tetraethylbenzimidazolylcarbocyanin Iodid (JC-1). Cells were incubated with 6 μM JC-1 in media at 37° C. for 30 min. After washing cells with PBS buffer at 37° C. they were fixed with 4% PFA for 15 min at room temperature. DAPI staining was performed and cells were analysed using EVOS FL (life Technologies).

[2] = test system: BNIP3 and BAX interaction with mitochondria; experiment: Mechanistic read-outs in the area at risk of mouse hearts after vessel occlusion and reperfusion; format: in vivo, mice; conditions: for BNIP3 (and BAX) translocation to / interaction with mitochondria: after 10 min of reperfusion, peptide 5 min before reperfusion
Description: (§1) In vivo myocardial infarction model in mice. […] Sodium chloride injection (50 μl) served as control treatment.
Immunoblotting. Tissue and human CM cells were lysed in a RIPS buffer (50 mM Tris-HCl, 150 mM NaCl, 0.5 mM EDTA, 1% NP-40 and protease- and phosphatase inhibitor, pH 7.4). Isolated mitochondria were lysed in a Mito-lyse buffer (200 mM sucrose, 10 mM HEPES, 1 mM EGTA, 1% Triton-X100 and protease- and phosphatase inhibitor, pH 7.4). The lysates were cleared by centrifugation (20.000×g, 15 min, 4° C.). Protein concentrations in supernatant were measured using DC Protein Assay (Bio-Rad). Samples were diluted into 4×LDS sample buffer and 10× Reducing Agent (Invitrogen) and were prepared for SDS-PAGE by heating to 95° C. for 5 min. Equivalent amounts of protein were separated using 4-12% Bis-Tris Gels (Invitrogen), transferred on to nitrocellulose and immunoblotted with primary antibodies. The used secondary antibodies were horseradish peroxidise conjugated goat anti-mouse or anti-rabbit IgG (Invitrogen). Immunoblotting was detected by ECL (Thermo Scientific) and imaged on an Imager 600 (Amersham).
Immunoprecipitation. Immunoprecipitation were performed using protein G-coupled Dynabeads (Invitrogen). 500 μg lysed proteins were incubated with 2 μg antibody over night at 4° C. with shaking in PBS buffer containing 1 mM DTT, 0.005% Brij35 and protease-phosphatase inhibitors. Next day 20 μl Dynabeads were added and the solution was incubated again for 1 h. The precipitated immune complex was washed 2 times and then resuspended in eluation buffer containing LDS-Sample Buffer (1:4) und Reducing Agent (1:10) (Invitrogen) in PBS and heated for 5 min at 95° C. After removal of the Dynabeads the Eluate were analysed via immunoblotting.
Caspase-3 activity was measured using the Caspase 3 Assay Kit from Abcam (#ab39401). Murine hearts were harvested after 30 min ischemia and 4 h reperfusion, area at risk was isolated, lysed in containing buffer and the assay was performed according to manufacturer's instructions.
(§2) Swelling Assay. Mitochondrial swelling was measured by light scattering at 540 nm in a microplate absorbance reader FLUOstar Omega (BMG Labtech) at RT. The final assay volume was 200 μl, containing mitochondria at 0.5 mg/ml in buffer containing 250 mM sucrose, 10 mM HEPES, […], pH 7.4.

[3] = test system: myocardial infarction model in mice; experiment: In vivo myocardial infarction (ischemia/reperfusion) model in mice, infarct size; conditions: 24 h reperfusion; for effect on infarct size (in words): given 5 min before reperfusion
Description: as §1
Infarct size measurement. For analysis of infarct size, mice were euthanized after 24 hours of reperfusion; hearts were excised and perfused with PBS over 5 min. After perfusion, the LCA was re-ligated in the same location as explicated before. Evans blue dye (1 ml of a 1% solution) was injected into the aorta and coronary arteries for delineation of the ischemic AAR from the non-ischemic zone. The tissue was wrapped in a clear food wrap and stored for one hour in a −20° C. freezer. The heart was then serially sectioned perpendicularly to the long axis in 1 mm slices, and each slice was weighed. The sections were incubated in 1% TTC for 5 min at 37° C. for demarcation of the viable and non-viable myocardium within the risk zone. Infarction, AAR, and non-ischemic left ventricle were assessed with computer-assisted planimetry by an observer blinded to sample identity. The size of the myocardial infarction was expressed as a percentage of the AAR.

[4] = test system: infarct size in STEMI patients; conditions: cited from earlier work; for infarct size / effect in patients: clinical trials, administered prior to PPCI
[5] = test system: I/R injury; conditions: in vivo; cited from earlier work
[6] = test system: transient middle cerebral artery occlusion (tMCAO); experiment: Mouse model of focal cerebral reperfusion (tMCAO), brain infarct size; format: in vivo; conditions: 24 h of reperfusion after 30-min tMCAO, vs vehicle
Description: We subjected mice to 24 h of reperfusion after a 30-min transient middle cerebral artery occlusion (tMCAO). BNIP3-8B treatment immediately post tMCAO markedly reduces the infarct size by 52% (FIG. 12).

[7] = after reperfusion post vessel occlusion, peptide given 5 min before reperfusion
Description: In vivo myocardial infarction model in mice. Wild-type and Bnip3 deficient (Bnip3^−/−) mice were anesthetized by i.p. injection of ketamine (100 mg/kg) and xylazin (10 mg/kg) and intubated. Mechanical ventilation parameters were set to a tidal volume of 2.1 to 2.5 ml and a respiratory rate of 140 breaths per min using a mouse mini-ventilator. Deep anaesthesia was maintained by adding 2 vol % isoflurane to the ventilation gas. The chest was opened through a lateral thoracotomy (1 cm left lateral incision between the 3rd and 4th ribs). A 6-0 prolene suture was placed around the left coronary artery (LCA) and a piece of soft silicon tubing placed over the artery. Coronary occlusion was achieved by tightening and tying the suture. After 30 min of occlusion, the silicon tubing was removed and the suture left in place. For longer reperfusion times the chest were closed using 4-0 prolene. 2, 6 and 9 nmol (in 50 μl 0.9% sodium chloride) BNIP3 were injected into the left ventricular cavity 5 min before vessel occlusion. Peptides with 20 amino acids (2 nmol/50 μl) and peptides with 8 amino acids (8 nmol/50 μl) in NaCl were injected 5 min before reperfusion. Sodium chloride injection (50 μl) served as control treatment.
Peptides. […] For uptake and binding studies, peptides were labelled with a fluorophore.

[8] = test system: isolated adult cardiomyocytes; conditions: survival after 24 h
Description: FIG. 7. A Uptake of fluorescence labelled TAT-BNIP3-8B in different organs after 5 min of reperfusion post vessel occlusion. TAT-BNIP3-8B was given 5 min before starting reperfusion. B Survival of isolated adult cardiomyocytes treated with TAT-BNIP3-8B and TAT-BNIP3-8C control peptide after 24 h.

[9] = test system: HL-1 cells; experiment: Doxorubicin-induced mitochondrial swelling in HL-1 cells (OD540); format: cell-based; conditions: 5 μM Doxorubicin given simultaneously, 30 min
Description: HL-1 cells were cultured in Claycomb medium as per manufacturer's protocol. The cells were treated with 5 μM Doxorubicin and 2 nmol TAT-BNIP3-8B for 30 min.
as §2

[10] = biological target: BNIP3 (Mus musculus, UniProt O55003); experiment: BNIP3/TAT-BNIP3-8B overlay assay and docking simulation; format: binding; conditions: data not shown
Description: Docking Simulation. Experiments were performed using Autodock Vina^52 and HADDOCK^53. The structure of BAX (pdb-ID: 4S0O) was taken from the Protein Data Bank, whereas the structure of BNIP3 and peptide BNIP3-8B were modelled using Modeller9.15^47. The template structures correspond to PDB codes 2k7w and 2ka1. The created model was energy minimized using NAMD2.9^54 and the CHARMM36 force field.

[11] = 37° C.
Description: FIG. 8. TAT-BNIP3-8B pharmacokinetics. Fluorescence labelled BNIP3-8B was incubated in human serum (A), plasma (B), and whole blood (C) at 37° C. for indicated time durations and monitored by Western blot. Proteinase K treatment served as control.

[12] = test system: myocardial infarction model in swine; experiment: In vivo myocardial infarction model in pigs, infarct size; conditions: 60 min LAD occlusion, 4 h of reperfusion, IV 5 min before reperfusion, vs vehicle
Excerpt: In vivo myocardial infarction model in pigs. Following induction of anesthesia, a small incision was made over the femoral artery and vein; the vessels were isolated. A small opening was made in the artery and a sheath was introduced. In addition, a sheath was placed in the femoral vein or other appropriate vein to allow for emergency drug administration if necessary. A blood sample was taken prior to administration of heparin and was used to establish a baseline Activated Clotting Time (ACT) which was recorded. Subsequently, as directed by the surgeon, heparin (250 to 350 IU/kg) was administered as needed to achieve and maintain an ACT that is two times the level of the baseline ACT. Following the initial bolus of heparin ACT was recorded again and monitored at least every 60 minutes thereafter, until completion of surgery.
An appropriate guide catheter was advanced into the ostium of the left anterior descending artery (LAD) using visual guidance provided by fluoroscopy. Non-ionic contrast was used for all procedures. A balloon catheter was introduced by advancing it through the guide catheter to the left anterior descending (LAD) coronary artery. The balloon was advanced into the coronary arteries through a guide catheter to a suitable place above the 1st diagonal branch of the LAD. […] Incidence supportive drugs and defibrillation were recorded in the study record. […]

[13] = test system: cancer therapy cardiotoxicity; conditions: in vivo; cited from earlier work

TAT-BNIP3-8C: control peptide: BNIP3-8B with Phe-18 to Ala-18 and His-17 to Ala-17 substitutions (WVELAASN)
apoptotic and necrotic cell death [1]: not effective
mitochondrial inner membrane depolarization / loss of mitochondrial inner membrane potential [1]: not effective
BNIP3 (and BAX) translocation to / interaction with mitochondria [2]: does not
effect on infarct size (in words) ([3]; wild-type mice): does not appreciably affect the infarct size

TAT-BNIP3-20C: control peptide: TAT PTD attached to amino acids 42-61 of BNIP3 (LDAQHESGRSSSKSSHCDSP)
apoptotic and necrotic cell death [1]: not effective
translocation of human BNIP3 to mitochondria [1]: not effective
mitochondrial inner membrane depolarization / loss of mitochondrial inner membrane potential [1]: not effective
BNIP3 (and BAX) translocation to / interaction with mitochondria [2]: does not
effect on infarct size (in words) ([3]; wild-type mice): not effective

CC(C)CCC[C@@H](C)[C@H]1CC[C@H]2[C@@H]3CC/C(=N\O)[C@](C)(CCCO)[C@H]3CC[C@]12C [TRO40303]
infarct size / effect in patients [4]: failed to reduce infarct size
adverse events in patients ([4]; compared with the placebo arm): more adverse events
infarct size in animal / pre-clinical studies [5]: reduce infarct size

elamipretide
infarct size / effect in patients [4]: failed to reduce infarct size
infarct size in animal / pre-clinical studies [5]: reduce infarct size

TAT-BNIP3-8B: TAT PTD covalently attached to WVELHFFN (BNIP3 amino acids 13-20 with Ser-19 to Phe-19 substitution, SEQ ID NO: 8)
reduction of cerebral infarct size [6]: 52%
uptake / tissue distribution [7]: taken up by the heart, spleen and liver and is present in the plasma
toxicity in cardiomyocytes [8]: no signs of overt toxicity
apoptotic and necrotic cell death [1]: markedly inhibits necrotic and apoptotic cell death
mitochondrial inner membrane depolarization / loss of mitochondrial inner membrane potential [1]: markedly inhibits
mitochondrial swelling (OD540) [9]: prevents mitochondrial swelling
binding to BNIP3 [10]: binds to BNIP3
half-life in human serum, plasma and whole blood [11]: enables its in vivo inhibitory capacity
interaction with endogenous BNIP3 / BAX (co-immunoprecipitation) ([2]; 5 min of reperfusion, fluorescence-labelled peptide): endogenous BNIP3 and BAX mono, homo- and heterodimers co-immunoprecipitated
down-stream cell death machinery (mitochondrial swelling, BAX activation, cytochrome c release, caspase-3 activity) ([2]; 10 min to 4 h of reperfusion): inhibition of the down-stream cell death machinery
BNIP3 (and BAX) translocation to / interaction with mitochondria [2]: prevents BNIP3 and BAX translocation to the mitochondria
BNIP3/BAX oligomerization ([2]; cytosol of area at risk, 10 minutes reperfusion, blue native-PAGE): strongly inhibited
reduction of infarct size ([3]; wild-type mice, peptide into left ventricle 5 min before reperfusion, vs vehicle): up to 40%
reduction of myocardial infarct size [12]: 56%

COc1ccccc1OCCNCC(O)COc1cccc2[nH]c3ccccc3c12 (stereo not shown) [carvedilol]
prevention of cardiotoxicity / cardiomyopathy in cancer patients [13]: failed to show a benefit

B1: BNIP3: BNIP3 protein restituted to BNIP3 deficient mice (TAT-BNIP3 doses, FIG. 1C) (protein)
chain: MSQSGEENLQGSWVELHFSNGNGSSVPASVSIYNGDMEKILLDAQHESGRSSSKSSHCDSPPRSQTPQDTNRAEIDSHSFGEKNSTLSEEDYIERRREVESILKKNSDWIWDWSSRPENIPPKEFLFKHPKRTATLSMRNTSVMKKGGIFSADFLKVFLPSLLLSHLLAIGLGIYIGRRLTTSTSTF
mitochondrial BAX translocation after addition of BNIP3 ([2]; BNIP3 deficient mouse hearts, early phase of reperfusion): restored the BAX translocation
infarct size after restitution of BNIP3 ([3]; BNIP3 deficient (Bnip3−/−) mice): infarct sizes comparable to wild-type mice in a dose-dependent manner
